In this test the target is E3 ubiquitin-protein ligase Mdm2 (Homo sapiens, UniProt Q00987). Put plainly: ELISA Assay: Streptavidin-coated 96-well plates are used to immobilise a biotin-tagged IP3 p53-derived peptide ([…]). This is a peptide analogue derived from the p53 binding site for MDM2 ([…]). […] Aliquots of MDM2 generated by in vitro translation are pre-incubated for 20 minutes at room temperature (i.e. 20-25C.) with test compounds and controls, before transfer into the IP3-coated 96-well plates.
E3 ubiquitin-protein ligase Mdm2, sequence (Q00987 whole entry): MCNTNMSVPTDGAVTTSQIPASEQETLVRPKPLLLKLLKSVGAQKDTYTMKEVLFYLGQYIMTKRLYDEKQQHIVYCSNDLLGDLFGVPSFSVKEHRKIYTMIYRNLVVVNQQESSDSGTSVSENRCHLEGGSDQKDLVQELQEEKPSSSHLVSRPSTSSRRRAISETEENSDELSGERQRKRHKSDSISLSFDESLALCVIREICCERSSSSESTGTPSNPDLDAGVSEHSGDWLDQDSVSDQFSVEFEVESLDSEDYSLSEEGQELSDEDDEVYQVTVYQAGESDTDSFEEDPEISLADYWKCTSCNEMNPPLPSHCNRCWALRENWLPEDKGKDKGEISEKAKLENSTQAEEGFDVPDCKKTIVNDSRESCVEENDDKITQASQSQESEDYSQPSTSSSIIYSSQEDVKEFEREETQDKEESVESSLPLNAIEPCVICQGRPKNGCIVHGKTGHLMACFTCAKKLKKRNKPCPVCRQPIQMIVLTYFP

For the molecule `O=C1c2ccccc2C(O[C@H]2CCC[C@@H](O)CCC2)(c2ccc(Cl)cc2)N1Cc1ccc([N+](=O)[O-])cc1` (stereo partly specified), the IC50 – broadly, the concentration at which inhibition is half-maximal – is 375 nM. This lies in the sub-micromolar range.

(Values after ChEMBL document CHEMBL3639270, “Therapeutic agents” (2013).)
